Test results taken from PubChem BioAssay AID1996.
Values after ≈ are worked out from the molar mass of the structure shown.

Details: buffer; pH 7.4; 200.0 µM

| SMILES | solubility kinetic [µg/mL] |
| --- | --- |
| Cc1cc(C)cc(C(N)=Nc2cccc(C#N)c2)c1 | > 37.4 |
| COCCNC(=O)/C(C#N)=C/c1ccc(OCc2ccc(F)cc2)cc1 | 3.4 (≈ 9.59 µM) |
| CC(=O)Nc1cc(Br)ccc1O | 32.6 (≈ 142 µM) |
| Cc1cc(C)c(OCC(=O)Nc2cc(C(=O)O)cc(C(=O)O)c2)cc1C | > 53.6 |
| COc1cccc(OC)c1C(=O)NC(=O)Nc1c(C)cccc1C | 5.2 (≈ 15.8 µM) |
| O=C1NCCN1Cc1ccc(Cl)cc1 | 26.3 (≈ 125 µM) |
| Fc1ccc2[nH]c3c(N4CCc5ccccc5C4)ncnc3c2c1 | 1.2 (≈ 3.77 µM) |
| C/[N+]([O-])=C/c1c(OCc2ccccc2)ccc2ccccc12 | > 43.7 |
| CCCN(C(=O)Cc1coc2cc(OC)ccc12)C1CCS(=O)(=O)C1 (stereo unspecified) | > 54.8 |
| N#Cc1ccccc1COC(=O)c1ccc(Br)o1 | 28.4 (≈ 92.8 µM) |
| CSc1ccccc1C(=O)Nc1cccc([N+](=O)[O-])c1C | 7.5 (≈ 24.8 µM) |
| CC(C)CCN1CCN(Cc2nc3ccccc3s2)CC1CCO (stereo unspecified) | > 52.1 |
| O=C(C1CCN(S(=O)(=O)c2ccccc2)CC1)N1CCCCC1 | 50.4 (≈ 150 µM) |
| COC(=O)c1ccc2nc(NC(=O)C3CC3)sc2c1 | 4.1 (≈ 14.8 µM) |
| CC(=O)N1CCCc2cc(S(=O)(=O)N3CCCC3)ccc21 | > 46.3 |
| CSc1nccc(Oc2ccccc2Cl)n1 | 6.8 (≈ 26.9 µM) |
| Cc1ccccc1C(=O)Nc1ccc(N(C)C)c2ccccc12 | 13.6 (≈ 44.7 µM) |
| CCC(=O)Nc1cccc(C(=O)OC)c1 | 29.4 (≈ 142 µM) |
| O=C(COC(=O)CN1C(=O)C2CCCCC2C1=O)Nc1ccc(F)c(F)c1F (stereo unspecified) | > 59.8 |
| N#Cc1cccc(NC(=O)CC2CCCC2)c1 | 33.1 (≈ 145 µM) |
| O=C(c1ccco1)N1CCn2cccc2C1c1ccccc1 (stereo unspecified) | 42 (≈ 144 µM) |
| Cc1nc(N2CCOCC2)nc(Oc2ccccc2)c1[N+](=O)[O-] | 5.8 (≈ 18.3 µM) |

| SMILES | solubility kinetic [µg/mL] |
| --- | --- |
| O=C(CSc1c[nH]c2ccccc12)NC1CCCC1 | > 41.2 |
| Oc1ccccc1Oc1ncc(Br)c(Cl)n1 | > 45.2 |
| O=C(NC1CC1)C1CCN(C(=O)c2ccccc2Cl)CC1 | > 46 |
| COc1ccc2oc(C(=O)OCC(=O)NC3CCCC3)c(C)c2c1 | 6.7 (≈ 20.2 µM) |
| CCC(C)Nc1nc(N)c([N+](=O)[O-])c(NCc2ccccc2)n1 (stereo unspecified) | 3.6 (≈ 11.4 µM) |
| CCCCC(=O)NC(c1ccccc1)c1ccc2cccnc2c1O (stereo unspecified) | < 0.4 |
| CC(C)Oc1cccc(OCCN2C(=O)c3ccccc3C2=O)c1 | 13.8 (≈ 42.4 µM) |
| Cc1cc(C)c2c(N)c(C(=O)Nc3ccccc3F)sc2n1 | 0.4 (≈ 1.27 µM) |
| Cn1c(=O)oc2cc(NC(=O)CCl)ccc21 | 24.2 (≈ 101 µM) |
| CN(C)c1ccc(C=C2C(=O)NC(=O)NC2=O)cc1[N+](=O)[O-] | > 45.6 |
| Cc1ccc(OCC2Cn3c(nc4c3c(=O)[nH]c(=O)n4C)O2)cc1C (stereo unspecified) | 3.4 (≈ 9.93 µM) |
| Cc1nc(N2CCN(c3ccc(Cl)cc3)CC2)[nH]c(=O)c1C | 1.6 (≈ 5.02 µM) |
| Cc1ccc(C(=O)OCC(=O)N(C)c2ccccc2)cc1C | 41.4 (≈ 139 µM) |
| COc1ccccc1-n1cc(-c2ccccc2)[nH]c1=S | 3 (≈ 10.6 µM) |
| COCCNC(=O)/C(C#N)=C/C=C/c1ccccc1 | 28.9 (≈ 113 µM) |
| CCOC(=O)COc1ccc2c(c1)c(C(C)=O)c(C)n2Cc1ccccc1 | 6.9 (≈ 18.9 µM) |
| CCOC(=O)c1sc(NC(=O)Cc2ccccc2OC)nc1C | 14.7 (≈ 44 µM) |
| O=c1c2ccccc2nc(-c2ccccc2)n1O | > 35.7 |
| CC(=O)N1CCN(C(=O)c2ccc(C(=O)c3ccccc3)cc2)CC1 | > 50.5 |
| CN(Cc1ccccc1)C(=S)NC(=O)c1cccs1 | > 43.6 |
| CCOC(=O)c1sc2nc(C)[nH]c(=O)c2c1C | 2.7 (≈ 10.7 µM) |
| C/C(=N/OC(=O)C1CC1c1ccccc1)c1ccccc1 (stereo unspecified) | 3.6 (≈ 12.9 µM) |

| SMILES | solubility kinetic [µg/mL] |
| --- | --- |
| COc1ccc(NCc2nc3ccccc3n2C)cc1 | 35 (≈ 131 µM) |
| Cc1ccc2oc(=O)c(/C=C(\O)c3ccccc3)nc2c1 | 36.8 (≈ 132 µM) |
| O=C(NCCNC(=O)c1ccccn1)c1ccc(F)cc1 | > 43.1 |
| Cc1ccc2nc(SCC(=O)NC3CC3)[nH]c2c1 | > 39.2 |
| COc1ccc2ccc(O)c(CN3CC=C(c4ccccc4)CC3)c2c1 | 1.6 (≈ 4.63 µM) |
| O=S(=O)(c1ccccc1)c1nc(-c2ccccc2Cl)oc1NCCCN1CCOCC1 | 3.6 (≈ 7.79 µM) |
| CC(=O)NS(=O)(=O)c1ccc(NC(=S)Nc2ccccc2)cc1 | > 52.4 |
| O=C(NCCCNC(=O)c1ccccn1)c1cccc(F)c1 | 42.3 (≈ 140 µM) |
| COc1ccccc1CNC(=O)C(c1ccccc1)c1ccccc1 | < 0.7 |
| CC(=O)Nc1ccc(N2C(=O)CSC2c2ccccc2[N+](=O)[O-])cc1 (stereo unspecified) | 41.1 (≈ 115 µM) |
| COc1cccc(NC(=O)CN2C(=O)C(=O)N(C3CCCC3)C2=O)c1 | > 51.8 |
| CN(C)NC(=O)c1ccc([N+](=O)[O-])s1 | > 32.3 |
| CCNc1c(NCC)c(=O)c1=O | 23.2 (≈ 138 µM) |
| Cc1cc(CNC(=S)Nc2cccc(Cl)c2Cl)nn1C | > 49.4 |
| N#C/C(=C\Nc1ccccn1)S(=O)(=O)c1ccc(Cl)cc1 | 0.4 (≈ 1.25 µM) |
| COc1ccc(CCNC(=O)c2cc3cc(F)ccc3nc2C)cc1OC | 2.3 (≈ 6.24 µM) |
| CC(=O)N/C(=C\c1ccccc1)C(=O)Nc1ccc(O)cc1 | > 44.4 |
| CCn1c(SCc2ccccc2)nc2c1c(=O)[nH]c(=O)n2C | 39.3 (≈ 124 µM) |
| COc1ccc(C(C)=O)cc1COC(=O)c1cccnc1SC | < 0.7 |
| Cc1ccccc1OCCCn1c(CO)nc2ccccc21 | 12.9 (≈ 43.5 µM) |
| O=C(O)c1ccc(COc2ccc([N+](=O)[O-])cc2)o1 | > 39.5 |
| CCN1CCN(C(=O)/C(=C/c2cccs2)NC(=O)c2ccc(C)c(C)c2)CC1 | 48.5 (≈ 122 µM) |

| SMILES | solubility kinetic [µg/mL] |
| --- | --- |
| COC(=O)c1cn(CC(=O)Nc2ccccc2C)c2ccccc12 | 0.4 (≈ 1.24 µM) |
| COc1ccc(CN(C)C(=O)c2sccc2-c2ccccc2)c(OC)c1 | 12 (≈ 32.7 µM) |
| C/C(N)=C(/C#N)C(=O)COC(=O)c1cccc(C)c1O | 1.5 (≈ 5.47 µM) |
| CCCn1c(=O)[nH]c(=O)c2[nH]cnc21 | > 29.1 |
| Cc1ccc(/C=C/C(=O)N2CCCC(C(N)=O)C2)o1 (stereo unspecified) | > 39.3 |
| CCOC(=O)CSc1nc(C)cc(C)c1C(N)=O | 35.6 (≈ 133 µM) |
| N#C/C(=C/c1cc[nH]c1)C(N)=S | > 26.6 |
| O=C(CN1C(=O)c2cccc3cccc1c23)NC1CCCC1 | 4.4 (≈ 14.9 µM) |
| N#C/C(=C\c1ccc(O)c(O)c1)C(=O)Nc1cccc2ncccc12 | 20 (≈ 60.4 µM) |
| O=C(Nc1ccccc1)OCc1cncs1 | > 35.1 |
| COc1cc(OC)cc(C(=O)NN2CCOCC2)c1 | > 39.9 |
| Nc1ccccc1SCc1c(Cl)cccc1Cl | < 0.6 |
| COc1cc(OC)nc(Oc2cccc(Cl)c2C)n1 | 1.5 (≈ 5.34 µM) |
| COc1ccc(CNC(=O)COC(=O)c2ccc(F)c(S(=O)(=O)N3CCOCC3)c2)cc1 | 68 (≈ 146 µM) |
| CC1(C)CC(NC(=O)Cc2ccc(Cl)cc2)CC(C)(C)N1 | > 46.3 |
| O=C(NCCCCCCNC(=O)c1ccncc1)c1ccncc1 | > 49 |
| CNC(=O)/C(C#N)=C/c1ccc(OCCOc2ccccc2)cc1 | 2.3 (≈ 7.13 µM) |
| COc1ccc(S(=O)(=O)Nc2cc(S(=O)(=O)N3CCOCC3)ccc2OC)cc1 | 37.3 (≈ 84.3 µM) |
| O=c1[nH]c(/C=C/c2ccc3c(c2)OCO3)c([N+](=O)[O-])c(=O)[nH]1 | 19.4 (≈ 64 µM) |
| Cc1ccc2c(c1)sc1ncc(NC(=O)c3ccc(F)cc3)c(=O)n12 | < 0.3 |
